Test results published in the NIST ThermoML archive (doi:10.1021/acs.jced.8b01004).
± gives the expanded uncertainty stated by the source.

Experiment: xn = mol fraction of the nth substance listed
Conditions: 100 kPa, Liquid; for viscosity: Falling or rolling sphere viscometry; for mass density: Vibrating tube method

OC1CCCC1 [cyclopentanol] + CC1CCCCC1
Conditions | mass density [kg/m3] | viscosity [mPa·s]
293.15 K, x2 = 0 | 946.99 ± 1.5 | 11.88 ± 0.25
293.15 K, x2 = 0.0995 | 924.17 ± 1.5 | 7.639 ± 0.16
293.15 K, x2 = 0.2005 | 902.36 ± 1.4 | 4.929 ± 0.11
293.15 K, x2 = 0.2971 | 882.38 ± 1.4 | 3.505 ± 0.076
293.15 K, x2 = 0.4001 | 862.34 ± 1.4 | 2.41 ± 0.052
293.15 K, x2 = 0.5014 | 843.89 ± 1.4 | 1.793 ± 0.039
293.15 K, x2 = 0.5994 | 827.06 ± 1.3 | 1.396 ± 0.03
293.15 K, x2 = 0.6828 | 813.6 ± 1.3 | 1.166 ± 0.025
293.15 K, x2 = 0.7949 | 796.76 ± 1.3 | 0.96 ± 0.021
293.15 K, x2 = 0.8975 | 782.42 ± 1.3 | 0.826 ± 0.018
298.15 K, x2 = 0 | 943.05 ± 1.5 | 9.722 ± 0.21
298.15 K, x2 = 0.0995 | 920.12 ± 1.5 | 6.316 ± 0.14
298.15 K, x2 = 0.2005 | 898.22 ± 1.4 | 4.183 ± 0.089
298.15 K, x2 = 0.2971 | 878.17 ± 1.4 | 3.03 ± 0.065
298.15 K, x2 = 0.4001 | 858.07 ± 1.4 | 2.123 ± 0.045
298.15 K, x2 = 0.5014 | 839.58 ± 1.4 | 1.602 ± 0.034
298.15 K, x2 = 0.5994 | 822.73 ± 1.3 | 1.268 ± 0.027
298.15 K, x2 = 0.6828 | 809.25 ± 1.3 | 1.071 ± 0.023
298.15 K, x2 = 0.7949 | 792.38 ± 1.3 | 0.89 ± 0.019
298.15 K, x2 = 0.8975 | 778.04 ± 1.3 | 0.772 ± 0.017
303.15 K, x2 = 0 | 939.05 ± 1.5 | 8.068 ± 0.17
303.15 K, x2 = 0.0995 | 916.02 ± 1.5 | 5.48 ± 0.12
303.15 K, x2 = 0.2005 | 894.03 ± 1.4 | 3.587 ± 0.077
303.15 K, x2 = 0.2971 | 873.91 ± 1.4 | 2.644 ± 0.057
303.15 K, x2 = 0.4001 | 853.76 ± 1.4 | 1.885 ± 0.04
303.15 K, x2 = 0.5014 | 835.24 ± 1.3 | 1.445 ± 0.031
303.15 K, x2 = 0.5994 | 818.37 ± 1.3 | 1.16 ± 0.025
303.15 K, x2 = 0.6828 | 804.87 ± 1.3 | 0.989 ± 0.021
303.15 K, x2 = 0.7949 | 787.97 ± 1.3 | 0.827 ± 0.018
303.15 K, x2 = 0.8975 | 773.63 ± 1.2 | 0.722 ± 0.016
308.15 K, x2 = 0 | 935 ± 1.5 | 7.077 ± 0.15
308.15 K, x2 = 0.0995 | 911.87 ± 1.5 | 4.66 ± 0.099
308.15 K, x2 = 0.2005 | 889.79 ± 1.4 | 3.099 ± 0.066
308.15 K, x2 = 0.2971 | 869.61 ± 1.4 | 2.324 ± 0.05
308.15 K, x2 = 0.4001 | 849.41 ± 1.4 | 1.685 ± 0.036
308.15 K, x2 = 0.5014 | 830.86 ± 1.3 | 1.312 ± 0.028
308.15 K, x2 = 0.5994 | 813.97 ± 1.3 | 1.065 ± 0.023
308.15 K, x2 = 0.6828 | 800.45 ± 1.3 | 0.916 ± 0.02
308.15 K, x2 = 0.7949 | 783.54 ± 1.3 | 0.771 ± 0.017
308.15 K, x2 = 0.8975 | 769.19 ± 1.2 | 0.677 ± 0.015
313.15 K, x2 = 0 | 930.91 ± 1.5 | 6.04 ± 0.13
313.15 K, x2 = 0.0995 | 907.67 ± 1.5 | 4.046 ± 0.086
313.15 K, x2 = 0.2005 | 885.51 ± 1.4 | 2.695 ± 0.058
313.15 K, x2 = 0.2971 | 865.27 ± 1.4 | 2.055 ± 0.044
313.15 K, x2 = 0.4001 | 845.02 ± 1.4 | 1.514 ± 0.032
313.15 K, x2 = 0.5014 | 826.44 ± 1.3 | 1.196 ± 0.026
313.15 K, x2 = 0.5994 | 809.53 ± 1.3 | 0.982 ± 0.021
313.15 K, x2 = 0.6828 | 796 ± 1.3 | 0.851 ± 0.018
313.15 K, x2 = 0.7949 | 779.07 ± 1.3 | 0.721 ± 0.016
313.15 K, x2 = 0.8975 | 764.73 ± 1.2 | 0.636 ± 0.014
318.15 K, x2 = 0 | 926.75 ± 1.5 | 5.19 ± 0.11
318.15 K, x2 = 0.0995 | 903.41 ± 1.4 | 3.487 ± 0.074
318.15 K, x2 = 0.2005 | 881.17 ± 1.4 | 2.361 ± 0.05
318.15 K, x2 = 0.2971 | 860.88 ± 1.4 | 1.828 ± 0.039
318.15 K, x2 = 0.4001 | 840.59 ± 1.4 | 1.368 ± 0.029
318.15 K, x2 = 0.5014 | 821.99 ± 1.3 | 1.093 ± 0.023
318.15 K, x2 = 0.5994 | 805.06 ± 1.3 | 0.907 ± 0.019
318.15 K, x2 = 0.6828 | 791.51 ± 1.3 | 0.793 ± 0.017
318.15 K, x2 = 0.7949 | 774.57 ± 1.2 | 0.677 ± 0.015
318.15 K, x2 = 0.8975 | 760.23 ± 1.2 | 0.6 ± 0.013
323.15 K, x2 = 0 | 922.53 ± 1.5 | 4.441 ± 0.095
323.15 K, x2 = 0.0995 | 899.09 ± 1.4 | 3.037 ± 0.065
323.15 K, x2 = 0.2005 | 876.78 ± 1.4 | 2.081 ± 0.044
323.15 K, x2 = 0.2971 | 856.11 ± 1.4 | 1.635 ± 0.035
323.15 K, x2 = 0.4001 | 836.11 ± 1.4 | 1.241 ± 0.027
323.15 K, x2 = 0.5014 | 817.49 ± 1.3 | 1.004 ± 0.022
323.15 K, x2 = 0.5994 | 800.54 ± 1.3 | 0.842 ± 0.018
323.15 K, x2 = 0.6828 | 786.98 ± 1.3 | 0.74 ± 0.016
323.15 K, x2 = 0.7949 | 770.03 ± 1.2 | 0.636 ± 0.014
323.15 K, x2 = 0.8975 | 755.7 ± 1.2 | 0.566 ± 0.012
328.15 K, x2 = 0 | 918.24 ± 1.5 | 3.83 ± 0.082
328.15 K, x2 = 0.0995 | 894.72 ± 1.4 | 2.674 ± 0.057
328.15 K, x2 = 0.2005 | 872.33 ± 1.4 | 1.843 ± 0.039
328.15 K, x2 = 0.2971 | 851.95 ± 1.4 | 1.472 ± 0.031
328.15 K, x2 = 0.4001 | 831.58 ± 1.3 | 1.13 ± 0.024
328.15 K, x2 = 0.5014 | 812.94 ± 1.3 | 0.924 ± 0.02
328.15 K, x2 = 0.5994 | 795.97 ± 1.3 | 0.782 ± 0.017
328.15 K, x2 = 0.6828 | 782.41 ± 1.3 | 0.692 ± 0.015
328.15 K, x2 = 0.7949 | 765.45 ± 1.2 | 0.599 ± 0.013
328.15 K, x2 = 0.8975 | 751.14 ± 1.2 | 0.537 ± 0.012
333.15 K, x2 = 0 | 913.89 ± 1.5 | 3.312 ± 0.07
333.15 K, x2 = 0.0995 | 890.28 ± 1.4 | 2.366 ± 0.05
333.15 K, x2 = 0.2005 | 867.83 ± 1.4 | 1.642 ± 0.035
333.15 K, x2 = 0.2971 | 847.4 ± 1.4 | 1.329 ± 0.028
333.15 K, x2 = 0.4001 | 827 ± 1.3 | 1.033 ± 0.022
333.15 K, x2 = 0.5014 | 808.34 ± 1.3 | 0.853 ± 0.018
333.15 K, x2 = 0.5994 | 791.36 ± 1.3 | 0.731 ± 0.016
333.15 K, x2 = 0.6828 | 777.79 ± 1.3 | 0.65 ± 0.014
333.15 K, x2 = 0.7949 | 760.84 ± 1.2 | 0.566 ± 0.012
333.15 K, x2 = 0.8975 | 746.55 ± 1.2 | 0.51 ± 0.011
338.15 K, x2 = 0 | 909.48 ± 1.5 | 2.886 ± 0.061
338.15 K, x2 = 0.0995 | 885.78 ± 1.4 | 2.109 ± 0.045
338.15 K, x2 = 0.2005 | 863.28 ± 1.4 | 1.471 ± 0.031
338.15 K, x2 = 0.2971 | 842.8 ± 1.4 | 1.205 ± 0.026
338.15 K, x2 = 0.4001 | 822.37 ± 1.3 | 0.948 ± 0.02
338.15 K, x2 = 0.5014 | 803.69 ± 1.3 | 0.79 ± 0.017
338.15 K, x2 = 0.5994 | 786.71 ± 1.3 | 0.683 ± 0.015
338.15 K, x2 = 0.6828 | 773.13 ± 1.2 | 0.611 ± 0.013
338.15 K, x2 = 0.7949 | 756.2 ± 1.2 | 0.536 ± 0.012
338.15 K, x2 = 0.8975 | 741.93 ± 1.2 | 0.486 ± 0.011
343.15 K, x2 = 0 | 904.99 ± 1.4 | 2.53 ± 0.054
343.15 K, x2 = 0.0995 | 881.21 ± 1.4 | 1.879 ± 0.04
343.15 K, x2 = 0.2005 | 858.67 ± 1.4 | 1.326 ± 0.029
343.15 K, x2 = 0.2971 | 838.13 ± 1.4 | 1.108 ± 0.024
343.15 K, x2 = 0.4001 | 817.69 ± 1.3 | 0.873 ± 0.019
343.15 K, x2 = 0.5014 | 799 ± 1.3 | 0.734 ± 0.016
343.15 K, x2 = 0.5994 | 782.01 ± 1.3 | 0.641 ± 0.014
343.15 K, x2 = 0.6828 | 768.43 ± 1.2 | 0.577 ± 0.012
343.15 K, x2 = 0.7949 | 751.51 ± 1.2 | 0.517 ± 0.011
343.15 K, x2 = 0.8975 | 737.27 ± 1.2 | 0.464 ± 0.01
